Where a name gives a salt, the structure may show the parent alone.
The compounds below were run against T1, human GPR4 (Homo sapiens, UniProt P46093) (assay: Cell-based assay for human GPR4 activity (pH-induced cAMP formation, HTRF)). Conditions: HeLa cells stably expressing human GPR4, pH-induced cAMP formation.
T1 construct: expressed in transfected cells
Experimental: a) Cell-Based Assay for Human GPR4 Activity
HeLa cells stably expressing human GPR4 were established by transfecting the cells with a construct containing the human GPR4 coding sequence. The cells were grown in DMEM/HAM's F12 medium supplemented with 10% fetal calf serum (FCS), 100 u/ml penicillin, 100 μg/ml streptomycin and 400 μg/ml G418 and 10 mM Hepes pH 8.0. pH-induced formation of cAMP was determined using the HTRF technology as provided by CisBio Inc. The cells were seeded in 384-well plates and cultured for 24 hours at 37° C., 5% CO2 before performing the assay. Medium was removed and 10 μl buffer A (HBS, 10 mM Hepes, pH 8, 2 mM IBMX) was added. For compound testing, buffer A with 2× concentrated compounds was used. Cells were incubated for 15 min at room temperature. 10 μl buffer B (HBS, 30 mM Hepes, specific pH) was added to reach the appropriate final pH for stimulation (see below) and incubation was continued for 15 min at room temperature. […] HBS: 130 mM NaCl, 0.9 mM NaH2PO4, 5.4 mM KCl, 0.8 mM MgSO4, CaCl2 1.8 mM, 25 mM glucose, 10-30 mM Hepes. Adjustment of HBS buffers: Bf A Bf B Final stimulation pH (1 volume buffer A+1 volume buffer B)
Compounds were diluted from fresh stock solutions at 10 mM in DMSO to 2 mM and then used for serial dilutions in DMSO.

T1 sequence (P46093 whole entry): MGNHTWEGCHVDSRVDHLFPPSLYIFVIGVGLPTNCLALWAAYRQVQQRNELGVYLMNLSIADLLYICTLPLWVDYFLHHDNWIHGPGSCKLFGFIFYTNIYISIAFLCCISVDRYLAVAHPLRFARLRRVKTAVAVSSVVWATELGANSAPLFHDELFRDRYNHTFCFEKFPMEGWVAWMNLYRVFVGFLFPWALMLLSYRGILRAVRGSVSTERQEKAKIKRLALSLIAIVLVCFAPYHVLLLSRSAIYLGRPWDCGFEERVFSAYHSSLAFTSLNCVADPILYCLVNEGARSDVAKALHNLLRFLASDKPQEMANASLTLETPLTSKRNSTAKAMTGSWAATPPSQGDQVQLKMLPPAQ

| Structure (SMILES) | IC50 [nM] |
| --- | --- |
| CCc1nc2c(C)cc(C)nc2n1Cc1ccc(/C=C/CN2CCN(CCCOC)CC2)cc1 [Example 64, 2-Ethyl-3-(4-{(E)-3-[4-(3-methoxy-propyl)-piperazin-1-yl]-propenyl}-benzyl)-5,7-dimethyl-3H-imidazo[4,5-b]pyridine dihydrochloride] | 367 |
| CCc1nc2c(C)cc(C)nc2n1Cc1ccc(/C=C/CN2CCN(CC(=O)N(C)C)CC2)cc1 [Example 65, 2-(4-{(E)-3-[4-(2-Ethyl-5,7-dimethyl-imidazo[4,5-b]pyridin-3-ylmethyl)-phenyl]-allyl}-piperazin-1-yl)-N,N-dimethyl-acetamide] | 647 |
| CCc1nc2c(C)cc(C)nc2n1Cc1ccc(/C=C/CN2CCN(CCN3CCOCC3)CC2)cc1 [Example 66, 2-Ethyl-5,7-dimethyl-3-(4-{(E)-3-[4-(2-morpholin-4-yl-ethyl)-piperazin-1-yl]-propenyl}-benzyl)-3H-imidazo[4,5-b]pyridine trihydrochloride] | 222 |
| CCc1nc2c(C)cc(C)nc2n1Cc1ccc(/C=C/CN2CCN(Cc3ccc(OC)c(OC)c3)CC2)cc1 [Example 67, 3-(4-{(E)-3-[4-(3,4-Dimethoxy-benzyl)-piperazin-1-yl]-propenyl}-benzyl)-2-ethyl-5,7-dimethyl-3H-imidazo[4,5-b]pyridine trihydrochloride] | 407 |
| CCc1nc2c(C)cc(C)nc2n1Cc1ccc(/C=C/CN2CCN(CCCF)CC2)cc1 [Example 68, 2-Ethyl-3-(4-{(E)-3-[4-(3-fluoro-propyl)-piperazin-1-yl]-propenyl}-benzyl)-5,7-dimethyl-3H-imidazo[4,5-b]pyridine] | 535 |
| CCc1nc2c(C)cc(C)nc2n1Cc1ccc(/C=C/CN2CCN(CC)C(C)C2)cc1 (stereo not drawn) [Example 69, 2-Ethyl-3-{4-[(E)-3-(4ethyl-3-methyl-piperazin-1-yl)-propenyl]-benzyl}-5,7-dimethyl-3H-imidazo[4,5-b]pyridine dihydrochloride] | 201 |
| CCc1nc2c(C)cc(C)nc2n1Cc1ccc(/C=C/CN2CCN(C)C[C@@H]2C(C)C)cc1 [Example 70, 2-Ethyl-3-{4-[(E)-3-((S)-2-isopropyl-4-methyl-piperazin-1-yl)-propenyl]-benzyl}-5,7-dimethyl-3H-imidazo[4,5-b]pyridine dihydrochloride] | 496 |
| CCc1nc2c(C)cc(C)nc2n1Cc1ccc(/C=C/CN2CCN(C(C)C)C(C)C2)cc1 (stereo not drawn) [Example 71, 2-Ethyl-3-{4-[(E)-3-(4-isopropyl-3-methyl-piperazin-1-yl)-propenyl]-benzyl}-5,7-dimethyl-3H-imidazo[4,5-b]pyridine] | 530 |
| CCc1nc2c(C)cc(C)nc2n1Cc1ccc(/C=C/CN2CCN(C(C)C)C(CC)C2)cc1 (stereo not drawn) [Example 72, 2-Ethyl-3-{4-[(E)-3-(3-ethyl-4-isopropyl-piperazin-1-yl)-propenyl]-benzyl}-5,7-dimethyl-3H-imidazo[4,5-b]pyridine dihydrochloride] | 452 |
| CCc1nc2c(C)cc(C)nc2n1Cc1ccc(/C=C/CN2CCN3CCCC3C2C)cc1 (stereo not drawn) [Example 73, 2-Ethyl-5,7-dimethyl-3-{4-[(E)-3-(1-methyl-hexahydro-pyrrolo[1,2-a]pyrazin-2-yl)-propenyl]-benzyl}-3H-imidazo[4,5-b]pyridine dihydrochloride] | 887 |
| CCc1nc2c(C)cc(C)nc2n1Cc1ccc(/C=C/CN2C[C@H]3C[C@@H]2CN3CC)cc1 [Example 74, 2-Ethyl-3-{4-[(E)-3-((1R,4R)-5-ethyl-2,5-diaza-bicyclo[2.2.1]hept-2-yl)-propenyl]-benzyl}-5,7-dimethyl-3H-imidazo[4,5-b]pyridine] | 323 |
| CCc1nc2c(C)cc(C)nc2n1Cc1ccc(/C=C/CN2C[C@H]3C[C@@H]2CN3CC(C)C)cc1 [Example 75, 2-Ethyl-3-{4-[(E)-3-((1R,4R)-5-isobutyl-2,5-diaza-bicyclo[2.2.1]hept-2-yl)-propenyl]-benzyl}-5,7-dimethyl-3H-imidazo[4,5-b]pyridine dihydrochloride] | 146 |
